Data from US20260286295A1, “COMPOSITION FOR INDUCING DIRECT DIFFERENTIATION OF STEM CELLS INTO CORNEAL ENDOTHELIAL CELLS AND METHOD FOR INDUCING DIRECT DIFFERENTIATION USING SAME” (THE ASAN FOUNDATION, priority 2023, published 2026).

system: iPSCs; test: ZO-1 immunocytochemical staining, efficiency of direct differentiation of iPSCs into CECs; assay type: cell-based, human; conditions: concluded from culture media that omit the constituent (Examples 3-4 to 3-7)
Method: To compare the effect on differentiation efficiency using ZO-1 marker staining of iPSC-derived CECs, CECs were fixed in 4% paraformaldehyde for 30 minutes, washed with PBS buffer, permeabilized with 0.5% Triton X-100, and blocked in PBST containing 1% bovine serum albumin (Sigma-Aldrich). […] Nuclei were counterstained for 10 minutes with 4′,6-diamidino-2-phenylindole (DAPI; Sigma-Aldrich), and fluorescence signals were detected using a laser scanning confocal microscope (Olympus, Tokyo, Japan) or a fluorescence microscope (EVOS, Life Technologies).

SMILES	role of the constituent in direct differentiation from iPSCs into CECs
O=S(=O)(c1cccc2cnccc12)N1CCCNCC1 [Fasudil, fasudil]	important
NC(=O)c1ccc(-c2nc(-c3ccc4c(c3)OCO4)c(-c3ccccn3)[nH]2)cc1 [SB431542, 4-[4-(2H-1,3-benzodioxol-5-yl)-5-(pyridin-2-yl)-1H-imidazol-2-yl]benzamide]	important
Cc1cncc2cccc(S(=O)(=O)N3CCCNC[C@@H]3C)c12 [Example H-1152, (2S)-2-methyl-1-[(4-methyl-5-isoquinolinyl)sulfonyl]hexahydro-1H-1,4-diazepine]	important
